Data taken from patent publication US8815863B2, “Compounds and therapeutic use thereof for protein kinase inhibition” (priority 2009, dated 2014).
Like-named read-outs stand apart in the source and are kept apart here.

Legend:
Human colon cancer HT-99 = Human colon cancer HT-99 transplanted nude mice; type: in vivo; settings: GCT 20 mg/kg ip, compound 1 15 mg/kg iv
Procedure: Some of the above compounds are tested in vitro or in vivo for their anti-cancer or anti-tumor activities, as well as cellular toxicity tests using SRB and MTT methods. The in vitro anti-cancer effects on human cancer HT-29 and mouse lung cancer cell 3LL are summarized in Table 1, and the effects on treating transplanted human colon cancer […] on nude mice are summarized in Table 2.

human ovarian cancer = test: Human ovarian cancer transplanted nude mice, combination with Gemcitabine; type: in vivo, nude mice BALB/c-nu
Procedure: The compound used for this test is XC608, shown above, and XC608-Cl is the chloride salt of XC608, 090208-1, also a whitish powder. AZD7762 is a yellow powder.
All of the above are dissolved in 5% glucose injectible solution and diluted to suitable concentrations. Control: Gemcitabine is obtained from Jiangsu Haosen Pharmaceuticals Co., Ltd., also dissolved to suitable concentration in saline solution.
Test animals: 30 nude mice BALB/c-nu, female, bw 18-20 g, supplied by B&K Universal Group Limited, Shanghai, China. Cancer cell lines: the human ovarian cell line is from a commercial source, transplanted onto nude mice, which were maintained by Shanghai Pharmaceutical Industry Research Institute.
The tumors from the ovarian cancer carrying nude mice is isolated and cut into 1-mm^3 pieces, which are then implanted subcutaneously to the test nude mice. After 10 days, the tumors grow to a size of about 0.1 cm^3. The test mice are randomly divided into 5 groups of six animals.
(§1) Starting from 11 days after tumor implant, the animals are administered the test compounds i.v. The animals are weighed every two days, and the tumor volume is measured. After 24 days from the beginning of test compound administration, the animals are killed and the tumors are isolated and weighed.
The tumor volume (TV) is measured and calculated.
Relative Tumor volume (RTV) is Vt/V0, wherein Vt is the tumor volume at the measurement time, while V0 is the tumor volume when drug administration was started.
A compound's antitumor activity is measured by the RTV growth rate, T/C (%), which is calculated as: T/C=Treatment RTC/Control Group RTC×100%.
If TC(%) is more than 60, then the treatment is considered to have no effect. Only when the TC is less than 60, an the difference is statistically significant would the treatment be considered to be effective.
Another measurement is rate of tumor inhibition, which is IR (%)=(control group tumor weight−treatment group tumor weight)/control group tumor weight×100%.

[1] = Body weight of ovarian cancer transplanted nude mice; type: in vivo, nude mice BALB/c-nu; settings: i.v.
Procedure: as §1

HT-29 Cell line = test: SRB cell multiplication test, sensitizing to cytotoxic antitumor drugs
Procedure: 3.2 Cell Lines: HT-29 Cell line (from ATCC).
Test Protocol: The effects of the compounds on cancer cell multiplication was measured using Sulforhodamine B (SRB). Specifically, log phase cells are inoculated into the holes of 96-hole culture plates, allowed to grow using the wall-adhesion procedure at 37° C. under 5% CO2. The test compound at 9 different concentrations were added, each concentration in duplicate, with appropriate saline water and cell-less controls. The cells are cultured for a further 72 hours, and fixed with TCA, and SRB is added for staining, and washed, and air-dried. After adding the Tris solution, the OD value was measured at 510 nm using a Spectra Max 190. The rate of inhibition is calculated according to the formula below: Rate of Inhibition=(ODcontrol−ODdrug)/ODcontrol×100%.
The IC50 is calculated based on the above ratios.

Nc1ccn([C@@H]2O[C@H](CO)[C@@H](O)C2(F)F)c(=O)n1 [Gemcitabine, gemcitabine]
TC (%) (Human colon cancer HT-99): 45%
TV Dn (human ovarian cancer; Dn, end of test, i.v.): 1734.05 ± 586.49 mm^3
RTV dn (human ovarian cancer; Vt/V0 at dn): 12.07
TV d0 (human ovarian cancer; d0, start of administration): 143.67 ± 44.38 mm^3
Tumor Weight dn (human ovarian cancer; isolated tumors at dn): 2.85 g
Tumor RI % dn (human ovarian cancer; rate of tumor inhibition by tumor weight versus control): 19.72%
T/C % Dn (human ovarian cancer; treatment RTV/control RTV, *p < 0.05, **p < 0.01): 82.27%
Body Weight (no tumor) Dn ([1]; Dn, end of test): 22.65 g
Body Weight (with tumor) d0 ([1]; d0, start of administration): 21.38 g
Body Weight (with tumor) dn ([1]; dn, end of test): 25.50 g
IC50 (HT-29 Cell line; Homo sapiens, HT-29, 72 h, read-out: IC50 Drug alone): 70 nM
IC50 (HT-29 Cell line; read-out: IC50 +10 nM AZD7762, HT-29, SRB, 72 hours, drug +10 nM AZD7762): 30 nM
IC50 (HT-29 Cell line; read-out: IC50 +100 nM AZD7762, HT-29, SRB, 72 hours, drug +100 nM AZD7762): 5 nM
IC50 (HT-29 Cell line; read-out: IC50 +1 μM XC608, HT-29, SRB, 72 hours, drug +1 μM XC608): 3 nM
